For 23 compounds, Ki results are on record in patent publication US12098144B2, “Piperazine indazole glucocorticoid receptor antagonists” (Corcept Therapeutics Incorporated, priority 2021, dated 2024).

The target of this assay is T1, glucocorticoid receptor (Homo sapiens, UniProt P04150).
T1 construct: endogenous in cells; ATCC cat
T1 sequence (P04150 1-777): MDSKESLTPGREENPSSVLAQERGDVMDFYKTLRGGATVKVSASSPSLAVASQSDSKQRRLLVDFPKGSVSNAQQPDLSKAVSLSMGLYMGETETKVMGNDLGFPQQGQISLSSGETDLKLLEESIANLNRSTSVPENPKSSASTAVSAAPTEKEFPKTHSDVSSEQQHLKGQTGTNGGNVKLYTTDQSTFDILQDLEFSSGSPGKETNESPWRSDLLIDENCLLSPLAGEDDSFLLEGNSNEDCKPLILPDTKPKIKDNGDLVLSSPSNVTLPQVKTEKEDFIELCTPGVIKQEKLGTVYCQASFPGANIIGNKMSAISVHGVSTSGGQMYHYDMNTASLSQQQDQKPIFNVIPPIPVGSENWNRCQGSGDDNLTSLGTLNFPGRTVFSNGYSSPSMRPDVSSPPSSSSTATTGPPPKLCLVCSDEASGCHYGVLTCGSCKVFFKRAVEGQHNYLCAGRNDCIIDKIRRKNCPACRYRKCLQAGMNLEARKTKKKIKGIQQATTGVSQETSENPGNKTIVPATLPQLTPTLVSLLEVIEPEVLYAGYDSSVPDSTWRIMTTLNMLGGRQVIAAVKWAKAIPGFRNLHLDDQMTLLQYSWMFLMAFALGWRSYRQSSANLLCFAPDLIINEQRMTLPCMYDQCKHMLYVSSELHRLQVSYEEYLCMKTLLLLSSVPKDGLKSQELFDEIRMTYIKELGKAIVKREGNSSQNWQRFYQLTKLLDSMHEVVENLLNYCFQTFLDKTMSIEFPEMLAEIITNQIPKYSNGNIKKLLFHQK
Put plainly: Hep G2 TAT Ki: inhibition of dexamethasone-induced TAT in HepG2 cells (96 well). It counts as cell-based. Conditions: challenge of 100 nM dexamethasone, IC50 converted to Ki by Cheng and Prusoff equation. As to the method: Glucocorticoid mediated activation of TAT occurs by transactivation of glucocorticoid response elements in the TAT promoter by glucocorticoid receptor-agonist complex.
HepG2 cells were cultured using MEME media supplemented with 10% (v/v) foetal bovine serum; 2 mM L-glutamine and 1% (v/v) NEAA at 37° C., 5%/95% (v/v) CO2/air.
Compounds were serially half log diluted in 100% (v/v) dimethylsulphoxide from a 10 mM stock.
HepG2 cells were then lysed with 30 μl of cell lysis buffer containing a protease inhibitor cocktail for 15 minutes at 4° C. […] After 2 hours incubation at 37° C. the reaction was terminated by the addition of 15 μl of 10M aqueous potassium hydroxide solution, and the plates incubated for a further 30 minutes at 37° C.
[compound] and fitting the data to a 4 parameter logistic equation.
For the compound `COCCn1cc(S(=O)(=O)N2CCN(CC(C)C)C(c3cc4cnn(-c5ccc(F)cc5)c4cc3C)C2)cn1` (single isomer, unassigned) [Example 47, 1-(4-fluorophenyl)-5-(1-isobutyl-4-((1-(2-methoxyethyl)-1H-pyrazol-4-yl)sulfonyl)piperazin-2-yl)-6-methyl-1H-indazole], the Ki (commonly a dissociation constant, usually derived from enzyme kinetics or from competition with a known ligand) was 23 nM. Consider `CCn1ncc(S(=O)(=O)N2CCN(CC(C)C)C(c3cc4cnn(-c5ccc(F)cc5)c4cc3C)C2)n1` (single isomer, unassigned) [Example 48, 5-(4-((2-ethyl-2H-1,2,3-triazol-4-yl)sulfonyl)-1-isobutylpiperazin-2-yl)-1-(4-fluorophenyl)-6-methyl-1H-indazole], for which the affinity, expressed as Ki, was 23 nM.

For `CCCS(=O)(=O)N1CCN(CC(C)C)C(c2cc3cnn(-c4ccc(F)cc4)c3cc2C)C1` (single isomer, unassigned) [Example 49, 1-(4-fluorophenyl)-5-(1-isobutyl-4-(propylsulfonyl)piperazin-2-yl)-6-methyl-1H-indazole], the affinity, expressed as Ki, was 31 nM. In turn, `Cc1cc2c(cnn2-c2ccc(F)cc2)cc1C1CN(S(=O)(=O)N(C)C)CCN1CC(C)C` (single isomer, unassigned) [Example 50, 3-(1-(4-fluorophenyl)-6-methyl-1H-indazol-5-yl)-4-isobutyl-N,N-dimethylpiperazine-1-sulfonamide] gave a Ki of 64 nM. For `Cc1cc2c(cnn2-c2ccc(F)cc2)cc1C1CN(S(=O)(=O)CC2CC2)CCN1CC(C)C` (single isomer, unassigned) [Example 51, 5-(4-((cyclopropylmethyl)sulfonyl)-1-isobutylpiperazin-2-yl)-1-(4-fluorophenyl)-6-methyl-1H-indazole] the value was 28 nM; for `Cc1cc2c(cnn2-c2ccc(F)cc2)cc1C1CN(S(=O)(=O)CC(C)C)CCN1CC(C)C` (single isomer, unassigned) [Example 52, 1-(4-fluorophenyl)-5-(1-isobutyl-4-(isobutylsulfonyl)piperazin-2-yl)-6-methyl-1H-indazole], 24 nM. In the case of `Cc1cc2c(cnn2-c2ccc(F)cc2)cc1C1CN(S(=O)(=O)N2CCOCC2)CCN1CC(C)C` (single isomer, unassigned) [Example 53, 4-((3-(1-(4-fluorophenyl)-6-methyl-1H-indazol-5-yl)-4-isobutylpiperazin-1-yl)sulfonyl)morpholine], affinity was put at a Ki of 41 nM. As to `Cc1cc2c(cnn2-c2ccc(F)cc2)cc1C1CN(S(=O)(=O)c2cnn(C3CCOCC3)c2)CCN1CC(C)C` (single isomer, unassigned) [Example 54, 1-(4-fluorophenyl)-5-(1-isobutyl-4-((1-(tetrahydro-2H-pyran-4-yl)-1H-pyrazol-4-yl)sulfonyl)piperazin-2-yl)-6-methyl-1H-indazole], the Ki was found to be 31 nM. For `CCn1cc(S(=O)(=O)N2CCN(CC(C)C)C(c3cc4cnn(-c5ccc(F)cc5)c4cc3C)C2)cn1` (single isomer, unassigned) [Example 55, 5-(4-((1-ethyl-1H-pyrazol-4-yl)sulfonyl)-1-isobutylpiperazin-2-yl)-1-(4-fluorophenyl)-6-methyl-1H-indazole] the value was 19 nM; for `Cc1cc2c(cnn2-c2ccc(F)cc2)cc1C1CN(S(=O)(=O)c2conc2C)CCN1CC(C)C` (single isomer, unassigned) [Example 56, 4-((3-(1-(4-fluorophenyl)-6-methyl-1H-indazol-5-yl)-4-isobutylpiperazin-1-yl)sulfonyl)-3-methylisoxazole], 65 nM.

The compound `Cc1cc2c(cnn2-c2ccc(F)cc2)cc1C1CN(S(=O)(=O)c2cnn(C)c2C)CCN1CC(C)C` (single isomer, unassigned) [Example 57, 5-(4-((1,5-dimethyl-1H-pyrazol-4-yl)sulfonyl)-1-isobutylpiperazin-2-yl)-1-(4-fluorophenyl)-6-methyl-1H-indazole] returned a Ki of 19 nM. For `Cc1cc2c(cnn2-c2ccc(F)cc2)cc1C1CN(S(=O)(=O)c2cncs2)CCN1CC(C)C` (single isomer, unassigned) [Example 58, 5-((3-(1-(4-fluorophenyl)-6-methyl-1H-indazol-5-yl)-4-isobutylpiperazin-1-yl)sulfonyl)thiazole], the Ki turned out to be 15 nM. Next, `Cc1cc2c(cnn2-c2ccc(F)cc2)cc1C1CN(S(=O)(=O)c2cnn(C(F)F)c2)CCN1CC(C)C` (single isomer, unassigned) [Example 59, 5-(4-((1-(difluoromethyl)-1H-pyrazol-4-yl)sulfonyl)-1-isobutylpiperazin-2-yl)-1-(4-fluorophenyl)-6-methyl-1H-indazole]: 22 nM. Compound `COCCS(=O)(=O)N1CCN(CC(C)C)C(c2cc3cnn(-c4ccc(F)cc4)c3cc2C)C1` (single isomer, unassigned) [Example 60, 1-(4-fluorophenyl)-5-(1-isobutyl-4-((2-methoxyethyl)sulfonyl)piperazin-2-yl)-6-methyl-1H-indazole] gave a Ki of 28 nM.

`Cc1cc2c(cnn2-c2ccc(F)cc2)cc1C1CN(S(=O)(=O)CC2CCOCC2)CCN1CC(C)C` (single isomer, unassigned) [Example 61, 1-(4-fluorophenyl)-5-(1-isobutyl-4-(((tetrahydro-2H-pyran-4-yl)methyl)sulfonyl)piperazin-2-yl)-6-methyl-1H-indazole] had a Ki of 64 nM. Take `Cc1cc2c(cnn2-c2ccc(F)cc2)cc1C1CN(S(=O)(=O)N(C)C2CC2)CCN1CC(C)C` (single isomer, unassigned) [Example 62, N-cyclopropyl-3-(1-(4-fluorophenyl)-6-methyl-1H-indazol-5-yl)-4-isobutyl-N-methylpiperazine-1-sulfonamide]: the Ki amounted to 44 nM. `CCn1cc(S(=O)(=O)N2CCN(CC(C)C)C(c3cc4cnn(-c5ccc(F)cc5)c4cc3C)C2)nn1` (single isomer, unassigned) [Example 63, 5-(4-((1-ethyl-1H-1,2,3-triazol-4-yl)sulfonyl)-1-isobutylpiperazin-2-yl)-1-(4-fluorophenyl)-6-methyl-1H-indazole]: the affinity, expressed as Ki, was 20 nM. As for `Cc1cc2c(cnn2-c2ccc(F)cc2)cc1C1CN(S(=O)(=O)c2cnn(C)c2)CCN1CC(C)C` (single isomer, unassigned) [Example 64, 1-(4-fluorophenyl)-5-(1-isobutyl-4-((1-methyl-1H-pyrazol-4-yl)sulfonyl)piperazin-2-yl)-6-methyl-1H-indazole], the Ki amounted to 50 nM. Next, `Cc1cc2c(cnn2-c2ccc(F)cc2)cc1C1CN(S(=O)(=O)c2cnn(C)n2)CCN1Cc1ccon1` (single isomer, unassigned) [Example 72, 3-((2-(1-(4-fluorophenyl)-6-methyl-1H-indazol-5-yl)-4-((2-methyl-2H-1,2,3-triazol-4-yl)sulfonyl)piperazin-1-yl)methyl)isoxazole]: 330 nM; `Cc1cc2c(cnn2-c2ccc(F)cc2)cc1C1CN(S(=O)(=O)c2cnn(C)n2)CCN1CC1(F)CC1` (single isomer, unassigned) [Example 73, 5-(1-((1-fluorocyclopropyl)methyl)-4-((2-methyl-2H-1,2,3-triazol-4-yl)sulfonyl)piperazin-2-yl)-1-(4-fluorophenyl)-6-methyl-1H-indazole]: 170 nM. In turn, `Cc1cc2c(cnn2-c2ccc(F)cc2)cc1C1CN(S(=O)(=O)c2cnn(C)n2)CCN1CC1CCC1` (single isomer, unassigned) [Example 74, 5-(1-(cyclobutylmethyl)-4-((2-methyl-2H-1,2,3-triazol-4-yl)sulfonyl)piperazin-2-yl)-1-(4-fluorophenyl)-6-methyl-1H-indazole] yielded a Ki of 160 nM. Take `Cc1cc2c(cnn2-c2ccc(F)cc2)cc1C1CN(S(=O)(=O)c2cnn(C)n2)CCN1CC1CC(F)(F)C1` (single isomer, unassigned) [Example 75, 5-(1-((3,3-difluorocyclobutyl)methyl)-4-((2-methyl-2H-1,2,3-triazol-4-yl)sulfonyl)piperazin-2-yl)-1-(4-fluorophenyl)-6-methyl-1H-indazole]: the Ki came out at 140 nM. `Cc1cc2c(cnn2-c2ccc(F)cc2)cc1C1CN(S(=O)(=O)c2cnn(C)n2)CCN1CC1CC(F)(F)C1` (single isomer, unassigned) [Example 76, 5-(1-((3,3-difluorocyclobutyl)methyl)-4-((2-methyl-2H-1,2,3-triazol-4-yl)sulfonyl)piperazin-2-yl)-1-(4-fluorophenyl)-6-methyl-1H-indazole] returned a Ki of 22 nM.
